Source: PubChem BioAssay (NCI)
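All cell lines were grown in 96-well plates and treated with compound for 48 hours. GI50 = concentration required for 50% inhibition of growth. TGI: total growth inhibition.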

What was measured:
Assay in all cases: growth of human tumour cells (NCI), 48 h
OVCAR-8 ovarian = system: OVCAR-8 ovarian
HT29 colon = system: HT29 colon
K-562 leukemia = system: K-562 leukemia
SW-620 colon = system: SW-620 colon
RXF 393 renal = system: RXF 393 renal
SNB-19 CNS = system: SNB-19 CNS
OVCAR-5 ovarian = system: OVCAR-5 ovarian
SNB-75 CNS = system: SNB-75 CNS
HS 578T breast = system: HS 578T breast
SR leukemia = system: SR leukemia

Compound | GI50 (OVCAR-8 ovarian) [µM] | TGI (OVCAR-8 ovarian) [µM] | GI50 (HT29 colon) [µM] | TGI (HT29 colon) [µM] | GI50 (K-562 leukemia) [µM] | TGI (K-562 leukemia) [µM] | GI50 (SW-620 colon) [µM] | TGI (SW-620 colon) [µM] | GI50 (RXF 393 renal) [µM] | TGI (RXF 393 renal) [µM] | GI50 (SNB-19 CNS) [µM] | TGI (SNB-19 CNS) [µM] | GI50 (OVCAR-5 ovarian) [µM] | TGI (OVCAR-5 ovarian) [µM] | GI50 (SNB-75 CNS) [µM] | TGI (SNB-75 CNS) [µM] | GI50 (HS 578T breast) [µM] | TGI (HS 578T breast) [µM] | GI50 (SR leukemia) [µM] | TGI (SR leukemia) [µM]
CC1Cc2c(Cl)ncnc2N(C)c2ccc(Cl)cc21 (centres undefined) | 0.394 | 20.6 | 0.232 | 0.846 | 0.496 | > 100 | 0.335 | 4.74 | 0.342 | 1.46 | 0.636 | > 100 | 0.592 | > 100 | 0.0795 | > 100 | 0.342 | > 100 | 0.467 | > 100
O=C(O)CCNCC(=O)O |  | > 100 |  | > 100 |  | > 100 |  | > 100 |  | > 100 |  | > 100 |  | > 100 |  | > 100 |  | > 100 |  | > 100
Oc1ccc(C=Nc2ccccc2O)cc1 |  | > 100 |  | > 100 |  | > 100 |  | > 100 |  | > 100 |  | > 100 |  | > 100 |  | > 100 |  | > 100 |  | > 100
CNC(=O)c1c(C)oc2cc(Oc3ncnc4cc(OC)c(OC)cc34)ccc12 | > 100 | > 100 | > 100 | > 100 | > 100 | > 100 | > 100 | > 100 | 0.235 | 2.63 | > 100 | > 100 | > 100 | > 100 | 2.35 | > 100 | 4.18 | > 100 | > 100 | > 100
CN[C@H]1CN(c2ccc3c(=O)c(C(=O)O)cn(-c4nccs4)c3n2)C[C@@H]1OC | 0.457 | 3.73 | 1.04 | 4.2 | 0.632 | 5.81 | 0.633 | 3.54 | 1.16 | 3.63 | 0.376 | 14.2 | 2.31 | 6.45 | 0.637 | 2.55 | 1.49 | 6.68 | 0.0508 | 0.777
O=c1oc2ccc(I)cc2c(=O)n1-c1ccc(Br)cc1F | 0.821 | 11.8 | 3.3 | 13.5 | 0.536 | > 71.7 | 1.1 | 9.68 | 1.02 | 4.39 | 0.434 | > 63.5 | 3.55 | > 100 | 0.374 | 2.48 | 0.345 | 3.14 | 0.605 | > 34.1
O=C(O)c1cc(-c2ccc3cc4c(cc3c2)OCO4)nc2ccccc12 |  | > 100 |  | > 100 |  | > 100 |  | > 100 |  | > 100 |  | > 100 |  | > 100 |  | > 100 |  | > 100 |  | 88.9
CCc1nc(N)nc(N)c1-c1ccc(Cl)c([N+](=O)[O-])c1 |  | > 100 |  | > 100 |  | > 100 |  | > 100 |  | > 100 |  | > 100 |  | > 100 |  | > 100 |  | > 100 |  | > 26.5
OCC1C(OCc2ccccc2)C(OCc2ccccc2)C(OCc2ccccc2)CN1Cc1ccccc1 (centres undefined) |  | > 100 |  | 34.6 |  | > 100 |  | > 100 |  | 48.4 |  | > 100 |  | > 100 |  | 31.2 |  | > 100 |  | > 100
CCOC(=O)C1=CCCC[C@H]1S(=O)(=O)Nc1ccc(F)cc1Cl | 27.9 | > 100 | 41.1 | > 100 | 26.4 | > 100 | 30 | > 100 | 13.2 | 61.9 | 29.4 | > 100 | 25 | 77.1 | 25.1 | > 100 | 20.3 | 89.3 | 23.9 | > 100
COc1ccc(Nc2nc3cc(N)cc(N)c3nc2-c2ccccc2)cc1 | 13.9 | 30.6 |  | 42.7 | 29.8 | > 100 | 22.5 | 37 | 10.9 | 24.2 | 33.8 | > 100 | 21.5 | 53.4 | 14.6 | 42.6 | 14.3 | 46.5 | 19.2 | > 100
C[C@@H](Oc1cc(-n2cnc3ccc(OC4CCN(C)CC4)cc32)sc1C(N)=O)c1ccccc1Cl | 0.0197 | 3.36 | 0.00829 | 2.77 | 0.0102 | 4.9 | 0.00875 | 3.48 | 0.0112 | 3.53 | 0.07 | 13.2 | 0.024 | 5.76 | 0.0614 | 2.89 | 0.0419 | 0.597 | 0.0103 | 0.532
CNC(=O)c1ccc(N2C(=S)N(c3cnc(C#N)c(C(F)(F)F)c3)C(=O)C23CCC3)cc1F | > 100 | > 100 | > 100 | > 100 | > 100 | > 100 | > 100 | > 100 | > 44.8 | > 100 | > 100 | > 100 | > 100 | > 100 | > 100 | > 100 | > 100 | > 100 | 51.5 | > 100
O=C1Nc2c(ccc(Cl)c2Cl)/C1=C/c1cc(Br)c(O)c(Br)c1 | 10 | > 100 | 4.05 | 23.7 | 5.57 | > 100 | 4.67 | > 100 | 7.32 | 35.2 | 4.6 | > 63.3 | 20.6 | > 74 | 9 | 83.2 | 4.32 | 46.4 | 2.77 | > 39.3
O=C(O)CSc1n[nH]c(=O)[nH]c1=O |  | > 100 |  | > 100 |  | > 100 |  | > 100 |  | > 100 |  | > 100 |  | > 100 |  | > 100 |  | > 100 |  | > 100
